Experimental findings from ChEMBL document CHEMBL6092125, “Synthesis and biological evaluation of novel aminoquinolines with an n-octyl linker: Impact of halogen substituents on C(7) or a terminal amino group on anticholinesterase and BACE1 activity” (Bioorg Med Chem Lett, 2024) are described below.

The target in test [1] is T1, Acetylcholinesterase (Homo sapiens, UniProt P22303). The test can be described thus: Non-competitive inhibition of recombinant human AChE by DTNB reagent based Ellman's method. For orientation: In Ellman's method for cholinesterases, released thiocholine reacts with DTNB.
T1 sequence (P22303 whole entry): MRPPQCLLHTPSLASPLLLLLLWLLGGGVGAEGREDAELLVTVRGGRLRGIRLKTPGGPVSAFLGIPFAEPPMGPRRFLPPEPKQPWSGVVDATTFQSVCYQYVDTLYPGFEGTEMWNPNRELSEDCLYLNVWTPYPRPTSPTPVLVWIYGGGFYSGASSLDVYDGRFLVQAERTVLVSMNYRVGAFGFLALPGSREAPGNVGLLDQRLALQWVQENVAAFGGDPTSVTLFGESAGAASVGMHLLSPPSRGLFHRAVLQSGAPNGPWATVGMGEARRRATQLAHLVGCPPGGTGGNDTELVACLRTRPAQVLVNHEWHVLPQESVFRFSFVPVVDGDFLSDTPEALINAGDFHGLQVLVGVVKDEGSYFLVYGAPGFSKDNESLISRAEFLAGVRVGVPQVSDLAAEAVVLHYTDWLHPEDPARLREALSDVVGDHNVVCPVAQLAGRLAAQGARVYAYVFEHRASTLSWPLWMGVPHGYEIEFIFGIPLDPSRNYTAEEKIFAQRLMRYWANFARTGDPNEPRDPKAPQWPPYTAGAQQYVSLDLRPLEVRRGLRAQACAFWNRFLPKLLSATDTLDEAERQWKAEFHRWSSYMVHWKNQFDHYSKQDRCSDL
Test [2] addresses T2, Cholinesterase (Homo sapiens, UniProt P06276). The test can be described thus: Mixed type inhibition of recombinant human BChE by DTNB reagent based Ellman's method.
Test [3] has as its target T2, Cholinesterase. The test can be described thus: Competitive inhibition of recombinant human BChE by DTNB reagent based Ellman's method.
The target in test [4] is T1, Acetylcholinesterase. The test can be described thus: Mixed type inhibition of recombinant human AChE by DTNB reagent based Ellman's method.
For a further test, the system named is SH-SY5Y. The test can be described thus: Cytotoxicity against human SH-SY5Y cells incubated for 24 hrs by MTS assay. In kind it is functional, cell-based. (Tetrazolium dyes change colour on reduction, which living cells bring about.)
For the next test, the system named is HEK293. The test can be described thus: Cytotoxicity against HEK293 cells incubated for 24 hrs by MTS assay. As to conditions: Homo sapiens. In kind it is functional, cell-based.
Test [5] concerns the target Beta-secretase 1 (Homo sapiens) (UniProt P56817). The test can be described thus: Inhibition of BACE1 (unknown origin) at 1 uM relative to control.
For test [6], the target named is T2, Cholinesterase. The test can be described thus: Inhibition of recombinant human BChE by DTNB reagent based Ellman's method.
The target of test [7] is T1, Acetylcholinesterase. The test can be described thus: Inhibition of recombinant human AChE by DTNB reagent based Ellman's method.
The subject of the next test is HepG2. The test can be described thus: Cytotoxicity against human HepG2 cells incubated for 24 hrs by MTS assay. In kind it is functional, cell-based.
The target in test [8] is T1, Acetylcholinesterase. The test can be described thus: Competitive inhibition of recombinant human AChE by DTNB reagent based Ellman's method.

Active and inactive are the calls of the source. The calls are words filed in the database; no cut-off is given here. Some results are limits rather than exact numbers.

Usually Ki stands for the equilibrium dissociation constant of an inhibitor or competing ligand from its target. As a reminder, the inhibition is the change of the read-out against control, counted positive when it falls. Higher therefore signals a strong effect.

Chain of Beta-secretase 1 (Homo sapiens) (P56817 whole entry): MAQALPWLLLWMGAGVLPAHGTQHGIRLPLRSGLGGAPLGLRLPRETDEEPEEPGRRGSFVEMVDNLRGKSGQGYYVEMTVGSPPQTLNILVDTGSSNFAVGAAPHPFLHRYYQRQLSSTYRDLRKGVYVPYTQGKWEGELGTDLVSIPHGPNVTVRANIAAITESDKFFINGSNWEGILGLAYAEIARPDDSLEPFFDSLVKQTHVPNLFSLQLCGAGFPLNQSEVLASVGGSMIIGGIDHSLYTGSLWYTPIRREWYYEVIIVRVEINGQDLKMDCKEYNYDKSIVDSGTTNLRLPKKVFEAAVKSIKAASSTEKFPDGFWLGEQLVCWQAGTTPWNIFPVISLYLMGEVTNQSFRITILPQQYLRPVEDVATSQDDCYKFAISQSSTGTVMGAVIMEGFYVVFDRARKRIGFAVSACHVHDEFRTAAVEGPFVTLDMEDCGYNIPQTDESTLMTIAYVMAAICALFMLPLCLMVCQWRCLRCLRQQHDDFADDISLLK
T2 sequence (P06276 whole entry): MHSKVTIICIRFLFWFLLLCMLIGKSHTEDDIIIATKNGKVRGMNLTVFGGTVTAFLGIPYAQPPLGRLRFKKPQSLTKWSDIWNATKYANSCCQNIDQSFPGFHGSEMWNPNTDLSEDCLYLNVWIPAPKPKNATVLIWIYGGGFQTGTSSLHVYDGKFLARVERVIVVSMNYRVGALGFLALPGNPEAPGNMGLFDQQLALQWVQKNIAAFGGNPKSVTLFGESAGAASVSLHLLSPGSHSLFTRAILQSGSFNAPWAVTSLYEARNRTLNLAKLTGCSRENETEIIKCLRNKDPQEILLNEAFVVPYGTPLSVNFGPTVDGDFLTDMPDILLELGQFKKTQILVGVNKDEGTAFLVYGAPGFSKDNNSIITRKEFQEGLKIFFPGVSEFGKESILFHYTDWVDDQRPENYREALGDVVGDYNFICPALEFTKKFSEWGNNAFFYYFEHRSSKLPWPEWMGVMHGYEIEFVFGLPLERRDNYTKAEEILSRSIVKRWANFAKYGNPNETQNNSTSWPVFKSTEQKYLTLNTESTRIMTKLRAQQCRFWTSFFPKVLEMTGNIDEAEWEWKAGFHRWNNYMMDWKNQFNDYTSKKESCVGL

For `FC(F)(F)c1ccc2c(NCCCCCCCCNC3NCCN3)ccnc2c1`, the figures for the Ki on Acetylcholinesterase [1] and at Cholinesterase [2] were 0.2 µM and 0.19 µM, respectively.
Turning to `Fc1ccc(NCCCCCCCCNc2ccnc3cc(C(F)(F)F)ccc23)cc1`, the Ki worked out at 0.012 µM on Acetylcholinesterase [1] and 0.0061 µM at Cholinesterase [3].
Consider `FC(F)(F)c1ccc2c(NCCCCCCCCNc3cccc(Cl)c3)ccnc2c1`, for which the values for the Ki on Acetylcholinesterase [4] and on Cholinesterase [2] were 0.011 µM and 0.0059 µM, respectively. For the same molecule, the result with SH-SY5Y and in the test on HEK293 was Active. The molecule also returned an inhibition in test [5] greater than 5.6%.
As for `Fc1ccc(F)c(CNCCCCCCCCNc2ccnc3cc(Cl)ccc23)c1`, the Ki is 0.041 µM at Cholinesterase [6] and 0.0082 µM on Acetylcholinesterase [7]. Moreover, the inhibition in [5] was greater than 5.6%.
For the molecule `Fc1ccc(F)c(CN(CCCCCCCCNc2ccnc3cc(Cl)ccc23)c2cc(F)ccc2F)c1`, the Ki at Cholinesterase [6] is 1.3 µM; on Acetylcholinesterase [7] it was 0.26 µM.
On to `Fc1cccc(CNCCCCCCCCNc2ccnc3cc(Cl)ccc23)c1`, for which the results for the Ki on Cholinesterase [6] and on Acetylcholinesterase [7] were 0.0084 µM and 0.0032 µM, respectively.
On to `O=[N+]([O-])c1ccc(NCCCCCCCCNc2ccnc3cc(C(F)(F)F)ccc23)cc1`, for which the Ki on Acetylcholinesterase [1] is 0.14 µM; on Cholinesterase [2], 0.036 µM. The same molecule gave an inhibition in [5] greater than 5.6%.
Regarding `Fc1cc(C(F)(F)F)ccc1CNCCCCCCCCNc1ccnc2cc(Cl)ccc12`, the Ki at Cholinesterase [6] was found to be 1.1 µM; at Acetylcholinesterase [7], 0.15 µM. For the same molecule, the Activity entry in the test with SH-SY5Y is given as “Active; Increase In Toxicity Compared To Parent Compound 1”. Besides, in the test with HEK293, the outcome was Active.
`FC(F)(F)c1ccc2c(NCCCCCCCCNc3ccccc3)ccnc2c1`: the Ki on Acetylcholinesterase [1] stood at 0.008 µM; on Cholinesterase [2], 0.021 µM. Besides, in test [5], the inhibition was greater than 5.6%.
As for `Fc1cccc(NCCCCCCCCNc2ccnc3cc(C(F)(F)F)ccc23)c1`, the Ki on Acetylcholinesterase [4] came out at 0.0071 µM; at Cholinesterase [2], 0.0067 µM. Moreover, the result in the test with SH-SY5Y, in the test on HEK293 and with HepG2 was inactive. For the same molecule, the inhibition in test [5] is greater than 5.6%.
On to `FC(F)(F)c1ccc2c(NCCCCCCCCNc3ccc(Cl)cc3)ccnc2c1`, for which the Ki on Cholinesterase [3] was 0.021 µM; on Acetylcholinesterase [8], 0.07 µM. Moreover, the result in the test on SH-SY5Y and in the test on HEK293 was Active.
As for `FC(F)(F)c1ccc2c(NCCCCCCCCNc3ccccc3Cl)ccnc2c1`, the figures for the Ki at Cholinesterase [3] and at Acetylcholinesterase [4] were 0.019 µM and 0.013 µM, respectively. Also, the result in the test with SH-SY5Y and with HEK293 was Active.
For `FC(F)(F)c1ccc2c(NCCCCCCCCNc3cc4ccccc4s3)ccnc2c1`, the results for the Ki on Cholinesterase [3] and on Acetylcholinesterase [4] were 0.0044 µM and 0.07 µM, respectively. The outcome in the test on SH-SY5Y and in the test with HEK293 was Active. In [5], the inhibition was greater than 5.6%.
Turning to `Fc1ccc(Br)cc1CNCCCCCCCCNc1ccnc2cc(Cl)ccc12`, the Ki turned out to be 0.22 µM on Cholinesterase [6] and 0.024 µM on Acetylcholinesterase [7].
As to `Cc1cc(F)c(CNCCCCCCCCNc2ccnc3cc(Cl)ccc23)cc1F`, the Ki on Cholinesterase [6] was found to be 0.62 µM; on Acetylcholinesterase [7], 0.12 µM. For the same molecule, in the test on HEK293, the outcome was Active.
As for `CC(C)(C)c1ccc(NCCCCCCCCNc2ccnc3cc(C(F)(F)F)ccc23)cc1`, the Ki was 0.16 µM on Acetylcholinesterase [1] and 0.071 µM on Cholinesterase [3].
Consider `Fc1ccc(CNCCCCCCCCNc2ccnc3cc(Cl)ccc23)c(F)c1`, for which the Ki amounted to 0.27 µM at Cholinesterase [6] and 0.021 µM on Acetylcholinesterase [7]. For the same molecule, in the test with SH-SY5Y, the result was Active.
Consider `Fc1cc(C(F)(F)F)ccc1CN(CCCCCCCCNc1ccnc2cc(Cl)ccc12)c1ccc(C(F)(F)F)cc1F`, for which the Ki on Cholinesterase [6] is 1.5 µM; on Acetylcholinesterase [7], 0.7 µM.
Regarding `Fc1cc(Br)ccc1CNCCCCCCCCNc1ccnc2cc(Cl)ccc12`, the Ki on Cholinesterase [6] is 0.23 µM; on Acetylcholinesterase [7] it was 0.11 µM. In the test on SH-SY5Y, the Activity result was “Active; Increase In Toxicity Compared To Parent Compound 1”.
For `FC(F)(F)c1ccc2c(NCCCCCCCCNc3cc4ccccc4o3)ccnc2c1`, the Ki at Cholinesterase [3] turned out to be 0.049 µM; at Acetylcholinesterase [8] it was 0.54 µM.
On to `Clc1ccc(CNCCCCCCCCNc2ccnc3cc(Cl)ccc23)c(Cl)c1`, for which the figures for the Ki on Cholinesterase [6] and at Acetylcholinesterase [7] were 0.18 µM and 0.036 µM, respectively. Besides, in the test with SH-SY5Y, the Activity result is listed as “Active; Increase In Toxicity Compared To Parent Compound 1”.
For the molecule `FC(F)(F)c1ccc2c(NCCCCCCCCNc3ccncc3)ccnc2c1`, on Cholinesterase [3], the inhibition constant Ki amounted to 1.3 µM. The inhibition in [5] was greater than 5.6%.
For the molecule `Fc1ccc(Br)c(CNCCCCCCCCNc2ccnc3cc(Cl)ccc23)c1`, the inhibition constant Ki at Cholinesterase [6] came out at 0.28 µM; on Acetylcholinesterase [7] it was 0.016 µM.
